Laboratory results from patent US20210361706A1 (priority 2018, published 2021).
Where two headings read alike, the source gives them in different places.

Assays:
[1] = test system: EO771 cells; test: EO771 re-challenge of tumor-bearing mice that survived the primary tumor after treatment
Protocol: The orthotopic syngeneic TMBC model was done by injection of EO771 cells into the 4th mammary fat pad of C57BL/6JNarl female mice. For the tumor-bearing model, each mouse was inoculated with 0.5×10^6 cells and received the first intra-peritoneal injection of CTX after 21 days. The second CTX injection was given 6 days later. Sorted CD11c^+B220^+ NK cells were transferred intravenously around 24 hours after the second CTX treatment, and followed with another NK cell transfer 3-4 days later. For the tumor-resect model, each mouse was inoculated with 0.3×10^6 EO771 cells, and the tumor and draining lymph node were resected 21 days later. CTX/NK treatment started at 48 hours after resection as described in the tumor-bearing model. […] The mice were monitored for survival, body weight, and tumor volume.
Kaplan-Meier survival analyses were performed using GraphPad Prism 7, and the Log-rank test was used to determine significance. Cox proportional hazard model was used to analyze hazard ratio and interaction [24]. P-value≤0.05 was considered statistically significant (*p≤0.05, **p≤0.01, ***p≤0.001, ****p≤0.0001).
To determine whether CTX/NK cell combined therapy would prevent or reduce the risk of tumor recurrence, mice who survived the primary tumor after the treatment were re-challenged with the same tumor cells to mimic cancer recurrence.
The cure rate was estimated by multiplying the primary and re-challenge survival rates.

[2] = test system: EO771 tumor; assay type: in vivo, C57BL/6JNarl female mice; settings: for survival rate: twice CTX, FIG. 1B
Protocol: The syngeneic orthotopic EO771 breast cancer mouse model (see Johnstone et al., Disease models & mechanisms, 8(3):237-251 (2015)) was used to evaluate the in vivo treatment efficacy.
C57BL/6JNarl female mice were purchased from National Laboratory Animal Center, Taiwan and housed under specific pathogenic-free condition in the animal facility of Institute of Molecular Biology, Academia Sinica, Taiwan. Mice were used between 8-to-12-week-old.
EO771 cell line (CH3 BioSystems) were cultured in complete medium (RPMI 1640 (Gibco) supplemented with 20 mM pH7.2 HEPES (Sigma-Aldrich), 10% fetal bovine serum (FBS; HyClone) and 1% Penicillin and Streptomycin (PS; Gibco)). B16-F10 melanoma was provided by Dr. Roffler, Steve R. (Institute of Biomedical Sciences, Academia Sinica, Taiwan) and cultured in complete medium (DMEM (Gibco) supplemented with 10% FBS (HyClone) and 1% PS (Gibco)). Tumor cells were cultured at 37° C. incubator with 5% CO2.
Bone marrow (BM) cells were obtained from Tibias and femurs. Red blood cells were lysed by ACK lysis buffer (0.15 M NH4Cl, 10 mM NaHCO3, 1 mM disodium EDTA (pH 7.4)). The BM cells were cultured in 10% FBS RPMI medium containing rmIL-15 for 7 days, and IL-12 was added 16 hours before harvesting. The harvested BM cells were stained with antibodies specific for CD19, H57, NK1.1, CD11 c and B220, and sorted for CD11c^+B220^+ NK cells using FACSAriaII SORP (BD Biosciences; FACS Core, Institute of Molecular Biology, Academia Sinica, Taiwan).
CTX was administrated on day-21 post tumor inoculation. The twice CTX-treatment group received the second CTX injection 6 days after the first treatment. Phosphate-buffered saline (PBS) was used as a negative control.
First, the effects of CTX monotherapy, NK monotherapy, or CTX and NK cell combined therapy on EO771 tumor-bearing mice were examined, following the assays described in Example 1 above. The treatment started on day-21 post tumor inoculation. […] FIG. 2. […] FIG. 2.

[3] = test system: EO771 cells; assay type: in vivo, C57BL/6JNarl female mice; settings: tumor-resected mice
From the text: Following the assays described in Example 1 above, it was examined in this Example whether CTX monotherapy and CTX/NK cell combined therapy would induce protective immune memory under tumor-resected condition. Mice survived after the treatment of primary EO771 tumor were re-challenged with EO771 cells. […] FIG. 5. […] FIG. 5.

[4] = test system: EO771 tumor; assay type: in vivo, C57BL/6JNarl female mice
From the text: Next, the effect of CTX monotherapy and CTX/NK cell combined therapy were examined in an EO771 tumor resection mouse model, which mimics patients whose tumor was surgically removed.
Tumor and draining lymph node were resected on day-21 post tumor inoculation, and CTX alone or in combination with NK cells were started two days after the resection. […] FIG. 4. […] FIG. 4. […] FIG. 4. […]

[5] = primary survival rate × survival rate after EO771 re-challenge
[6] = tumor-bearing model, reference: no treatment
[7] = tumor-resection model, reference: no treatment (resection only)

SMILES: O=P1(N(CCCl)CCCl)NCCCO1 (stereo not shown) [CTX, cyclophosphamide]
- Survival rate after EO771 re-challenge % (live/total) [1]: 90 (26/29) %
- survived at least 120 days after the EO771 re-challenge ([1]; FIG. 3): 90%
- Estimated cure rate with immune protection (%) [1, 5]: 56%
- estimated cure rate ([1]; primary × re-challenge survival rates): 56%
- mice survived for at least 120 days ([2]; CTX once, 150 mg/kg per injection, day-21 post tumor inoculation, FIG. 1A): 1 out of 8
- mice survived for at least 120 days ([2]; CTX twice, 6 days apart, 150 mg/kg per injection, from day 21, FIG. 1A): 5 out of 8
- mice survived for at least 120 days ([2]; treatment started on day-21 post tumor inoculation, FIG. 2): 62%
- Primary survival rate % (live/total) ([2]; tumor-bearing mice, survival post treatment in mice inoculated with tumor the first time): 62 (46/74) %
- HR (95% CI), Frailty adjustment [2, 6]: 0.02 (0.009, 0.044)
- HR (95% CI), cluster adjustment [2, 6]: 0.024 (0.009, 0.066)
- HR (95% CI), without batch adjustment [2, 6]: 0.024 (0.012, 0.051)
- survival rate ([2]; 6 days apart, 125 mg/kg per injection): 11%
- survival rate ([2]; 6 days apart, 150 mg/kg per injection): 62%
- Tumor-free rate after EO771 re-challenge % (live/total) [3]: 30 (7/23) %
- estimated cure rate ([3]; EO771 primary and re-challenge survival rates): 26%
- survival after EO771 re-challenge ([3]; FIG. 5): 30%
- Estimated cure rate with immune protection (%) [3, 5]: 26%
- survival rate ([4]; tumor resected mice, treatment started two days after resection, FIG. 4): 86%
- Primary survival rate % (live/total) ([4]; tumor-resected mice, survival post treatment in mice inoculated with tumor the first time): 86 (49/57) %
- HR (95% CI), Frailty adjustment [4, 7]: 0.083 (0.036, 0.192)
- HR (95% CI), cluster adjustment [4, 7]: 0.086 (0.037, 0.201)
- HR (95% CI), without batch adjustment [4, 7]: 0.086 (0.040, 0.186)
